Source: patent US20230391881A1, “COMPOSITIONS AND METHODS FOR OVERCOMING DR5-INDUCED IMMUNE EVASION BY SOLID TUMORS” (University of Virginia Patent Foundation, priority 2020, published 2023)

Legend:
Format in all cases: in vivo, mouse
4T1 tumors = assay: Tumor regression in 4T1 syngeneic TNBC tumor models; conditions: antibodies i.p., similar dose (FIGS. 6I and 6J)
Protocol: FIGS. 4A-4K. DR5 agonist activated ROCK1 functions to help PD-L1 surface mobilization. (FIGS. 4A and 4B) KMTR2 and lexatumumab treated MDA-MB-436 and OVCAR3 (respectively) lysates for indicated early time points were analyzed for caspase-8, caspase-3, ROCK1, pMLC, PARP, PD-L1 and CMTM6 etc. as indicated. Vertical arrows indicate sequential kinetics of caspase-8, ROCK1, and caspase-3 activation, arrows with “n.s.” below them indicate nonspecific band by ROCK1 antibody. (FIG. 4C) OVCAR3 cells were treated with pMLC activating ionophore A23187 (positive control) and lexatumumab ±ROCK1 inhibitors or ±rDR5 or ±rFOLR1. Lysates were later analyzed for ROCK1, pMLC, caspase-3 and PARP with GAPDH as loading control. (FIG. 4D) MDA-MB-436 and OVCAR3 cells were treated with indicated ROCK1 inhibitors 2 hours prior to DR5 agonist KMTR2 treatment. After 4 hours flow cytometry was used to analyze surface PD-L1. […] Relative luciferase signal was quantified and plotted after subtraction of background signal from untreated cells. […] Tumor volumes were quantified at indicated days by caliper measurements. […] Statistical significance in FIG. 4J was determined by unpaired student t-test and in FIG. 4K using two-tailed […] Wilcoxon Mann-Whitney test. […]
FIGS. 6A-6M. […] CD8/CD45 and CD4/CD45 expressing cells were measured by flow cytometry. […] Harvested tumors homogenized followed by quantitation. […]

[1] = test system: chi-G4S-DR5 stable MC38 tumors; assay: Immunoblotting of Chi-G4S-DR5 stable MC38 tumor lysates (granzyme-b); conditions: size matched tumors, 6 total doses (FIG. 18A)
[2] = test system: chi-G4S-DR5 stable 4T1 tumors; assay: Immunoblotting of Chi-G4S-DR5 stable 4T1 tumor lysates (granzyme-b, Foxp3); conditions: size matched tumors, 6 total doses (FIG. 6D)

“avelumab: clinical anti-PD-L1 antibody (human/mouse cross-reactive); VL and VH SEQ ID NOs: 9 and 10” was tested, and the tumor regression (4T1 tumors) was “only stabilized the tumors”, the “granzyme-b activity in tumors compared to DR5 agonist alone” value [1] was “significantly higher granzyme-b activity” and the “granzyme-b activity in tumors compared to DR5 agonist alone” value [2] was “significantly higher granzyme-b activity”.
